The source of these data is paper PMC5663395, “Chemical Validation of Methionyl-tRNA Synthetase as a Druggable Target in Leishmania donovani” (ACS Infectious Diseases, 2017).

The test system of data set [1] is protein synthesis in human HeLa cell extract. In words: HeLa in vitro translation (GFP expression in cell extract). The data set is classed as biochemical. The conditions noted are these: 100 μM. The protocol: page 27: When test compounds were to be screened, the compound of interest (solubilised in 100% DMSO) was dispensed into assay plates using an Echo® 550 (Labcyte) before L. tarentolae extract and eGFP template DNA were added to assay wells as described above. The reaction was run at room temperature for 120 min before eGFP fluorescence intensity was measured. IC50 curve fitting was undertaken in GraFit version 6.0 (Erithacus Software) using a four-parameter logistic dose-response curve (equation 6), with s the slope. […] GFP expression was monitored over time using a BMG PheraStar plate reader (Excitation 485 nm; Emission 520 nm). When testing DDD806905 and the positive control compound cycloheximide, compounds (solubilised in 100% DMSO) were dispensed into assay plates using an Echo® 550 (Labcyte) before HeLa extract, accessory proteins, reaction mix and GFP template DNA were added to assay wells and GFP expression monitored as described above. Mitochondrial protein synthesis assay The effect of DDD806905 on mitochondrial protein synthesis was determined by BioDuro using the MitoBiogenesisTM In-Cell ELISA Kit (Abcam). […] In the assay the levels of SDH-A and COX-1 are measured in H9C2 cells. These are normalised to DMSO treated cells (vehicle) and then the ratio of normalised SDH-A over COX-1 is calculated. […]

The nature of data set [2]: Plasma protein binding, equilibrium dialysis, mouse plasma. Format: in vitro ADME. The conditions noted are these: female, CD1, read-out: fu (unbound fraction). The protocol: (§1) which gave the best fit to the data was then recorded as the logP. Using the logP and an experimentally determined pKa (see above), the software generated a lipophilicity plot showing changes in the logD with increasing pH and from this plot a logD7.3 and logD5.6 values were recorded.
(§2) Plasma Protein Binding Determination
(§3) A 96-well equilibrium dialysis apparatus was used to determine the free fraction in plasma for DDD806905 (HT Dialysis LLC, Gales Ferry, CT). Membranes (12-14 kDA cut-off) were conditioned in deionised water for 60 minutes, followed by conditioning in 80:20 deionised water:ethanol for 20 minutes, and then rinsed in isotonic buffer before use. Female CD1 mouse plasma or human plasma was removed from the freezer and allowed to thaw on the day of experiment. Thawed plasma was then centrifuged (Allegra X12-R, Beckman Coulter, USA), spiked with test compound (final concentration 10 μg/ml), and 150 μL aliquots (n=6 replicate determinations) loaded into the 96-well equilibrium dialysis plate. […] All samples were analysed by UPLC-MS/MS on a Quattro Premier XE Mass Spectrometer (Waters Corporation, USA).
(§4) The unbound fraction (fu) was determined as the ratio of the peak area in buffer to that in plasma. […]
Background: In equilibrium dialysis free small molecules cross a membrane that holds back macromolecules.

Data set [3] is described as follows: Plasma protein binding, equilibrium dialysis, human plasma. The data set is classed as in vitro ADME. The conditions noted are these: read-out: fu (unbound fraction). The protocol: as §1, §2, §3, §4
In data set [4] the test system is L. donovani promastigotes. The experiment in a line: Leishmania promastigote viability assay. Format: cell-based, Leishmania donovani. The conditions noted are these: Leishmania donovani. The protocol:
After suitable sample preparation, the
In vivo Leishmaniasis Animal Model […]
administered twice daily over the same interval.
Parasite load is expressed in Leishman-
Knock-out and overexpressor generation
Leishmania Promastigote Assay
Serum shift experiments were […]
carried out as described above using 5%, 10% and 20% FBS in the media. To examine the effect of the methionine concentration on the potency of DDD806905 parasites were grown in the presence of drug and in the presence (or absence) of 20-fold excess methionine (0.3 g/l). IC50 curve fitting was undertaken in GraFit version 6.0 (Erithacus Software) using a four-parameter logistic dose-response curve (equation 6), with s the slope.
Leishmania Axenic Amastigote Assay
The Leishmania axenic amastigote assay was performed using the method published in Nühs et al 15.
Leishmania Intracellular Amastigote Assay
The intramacrophage Leishmania assay was performed using a modified version of the method described in De Rycker et al 16. […]
amphotericin B was included. Controls were as follows: columns 11 and 12: DMSO, columns 23 and 24: amphotericin B (final concentration 2 µM). 350 nl of compound was pre-dispensed into 384-well sterile intermediary plates. To the intermediary plates, 35 µl of THP-1 media was added and plates were shaken for >5 min to ensure complete mixing. THP-1 cells (8,000 per well, 50 µl) were plated into black clear-bottom 384-well plates (Corning) in presence of 20 nM phorbol 12-myristate 13-

Another data set can be described thus: in vivo. The conditions noted are these: female, Balb/c, mouse, iv.
In data set [5] the test system is Leishmania donovani liver parasite burden. The experiment in a line: Mouse visceral leishmaniasis efficacy model. The conditions noted are these: 50 mg/kg oral twice daily for 10 days, 50 mg/kg.
Data set [6] in a line: Mouse pharmacokinetics integrated in efficacy study (blood levels). To be noted: female, BALB/c, whole blood, po, 50 mg/kg; for AUC(0-t): AUC(0-8h); for AUC(0-t) / Cmax: infected mice, 50 mg/kg oral; for Cmax: Cmax in blood.

The structures appear in SMILES notation. Values joined by “and” are separate entries in the source; they are usually repeats but may differ in a detail not shown here. Equal entries are not always repeated. Where two headings read alike, the source gives them in different places.

Take `Cl.Cl.O=c1nc(NCCCNCc2cc3c(Cl)cc(Cl)cc3[nH]2)[nH]c2ccccc12` [DDD806905, 2-((3-(((4,6-dichloro-1H-indol-2-yl)methyl)amino)propyl)amino)quinazolin-4(1H)-one dihydrochloride]: the “inhibition of in vitro translation in HeLa cell extract” value in data set [1] is given as “no inhibition”. The fraction unbound (commonly free concentration divided by total concentration) at 5 h, 10 μg/ml in data set [2] is 0.006; in data set [3] it was 0.007. The EC50 (usually the midpoint of the concentration-response curve) in data set [4] (10% serum, read-out: promastigote EC50) was 0.27 µM; in data set [4] (Supplementary Table 1, read-out: Leishmania Promastigote EC50) it was 0.44 µM; in data set [4] (absence of excess methionine, read-out: promastigote EC50) it was 0.46 µM; in data set [4] (extrapolated to 100% serum, read-out: predicted promastigote EC50) it was 1.75 µM; in data set [4] (extrapolated to no serum, read-out: predicted promastigote EC50), 0.12 µM; in data set [4] (presence of excess methionine (2 mM), read-out: promastigote EC50), 1.9 µM. Moreover, in “in vivo”, the Vd (in general, a proportionality between amount in the body and measured concentration, not a real space) stood at 6 L/kg. The “reduction (knock-down) of liver parasite burden (LDU) vs vehicle” value in data set [5] was 19% and 19.4%. In addition, the Tmax – broadly, the time from dosing to the highest level – in data set [6] was 2 h. The results for the AUC(0-t) in data set [6] (day 1) and in data set [6] (day 10) were 15.8 µg·h/mL and 23.3 µg·h/mL, respectively. Also, the Cmax – broadly, the peak of the concentration-time curve – in data set [6] (first dose day 1) amounted to 2.6 µg/mL; in data set [6] (first dose day 10), 3.2 µg/mL.
